Reference: patent publication US9492554B2, “Methods and compositions related to viral inhibition” (Clemson University Research Foundation (CURF), priority 2009, dated 2016)

How the values were obtained:
TAR RNA = experiment: UV melting of TAR RNA in presence of ligands (Tm, ΔTm); assay type: binding, HIV-1; conditions: for ΔTm (° C.): TAR RNA with ligand vs control, Table 10; for Tm (° C.): TAR RNA with ligand, control without ligand 69.3
Method: The reactions were done in the presence of 10 mM sodium cacodylate, 0.5 mM EDTA, 0.1 mM MgCl2 pH 7.0. The heating rate was 0.3° C./min.
UV melting studies of TAR were performed in the presence and absence of various ligands (FIG. 13).

HIV-1 TAR RNA = HIV-1 TAR RNA competition FRET binding assay (Tat peptide probe); conditions: 100 nM TAR RNA, 100 nM Tat peptide, 25° C., 60 min
Method: Before used, HIV-1 TAR RNA (5′-GGC AGA UCUGAG CCU GGG AGC UCU CUG CC-3′, Thermo Scientific) in 10 μM batch in sterile water was heated to 95° C. for 4.5 min, and then cooled rapidly in ice bath for 5 min. This snap-cooling causes the RNA to adopt the kinetically favored hairpin rather than thermodynamically favored duplexes.
The relative affinity of each polyamine for HIV-1 TAR RNA was determined using Fluorescence Resonance Energy Transfer (FRET)-based competitive binding assay with a fluorescein-labeled HIV-1 Tat peptide as described in the literature. The fluorescence experiments were performed with a Spectra Max Fluorimeter (Molecular Devices) at 25° C., with excitation and emission wavelengths of 495 and 570 nm, respectively. All samples were prepared in 96 well plates in 1×TK buffer (50 mM Tris, 20 mM KCl, pH=7.4) with 0.1% Trixton-100 (Sigma).
To a solution of 100 nM HIV-1 TAR RNA and 100 nM fluorescein-labeled HIV-1 Tat peptide, appropriate concentrations (0 nM to 100 μM) of the antagonists were added at 25° C.; total volume of the incubation solution was 80 μL. After 60 min, fluorescence changes of the sample solution were determined by the Spectra Max Fluorimeter Detector.

HIV-1 RRE RNA = HIV-1 RRE RNA competition binding assay (fluorescence polarization, Rev peptide probe); conditions: 100 nM RRE RNA, 10 nM Rev peptide, 25° C., 1 hour; Table 16
Method: Before used, HIV-1 RRE RNA (5′-GGUCUGGGCGCAGCGCAAGCUGACGGUACAGGCC-3′, Thermo Scientific) in 10 μM batch in sterile water was heated to 95° C. for 3 min, and then cooled to ambient temperature over 1 hour.
The relative affinity of each compound for HIV-1 RRE RNA was determined using fluorescence polarization-based competitive binding assay with a fluorescein-labeled HIV-1 Rev peptide. The anisotropy experiments were performed with a Spectra Max Fluorimeter (Molecular Devices) at 25° C., with excitation and emission wavelengths of 485 and 525 nm, respectively. All samples were prepared in 96 well plates in binding buffer (30 mM Hepes, 100 mM KCl, 40 mM NaCl, 10 mM NH4OAc, 10 mM Guanidinium Hydrochloride, 2 mM MgCl2, 0.5 mM EDTA, pH 7.4) with 0.01% triton-X100 (Sigma). The binding data reported for each conjugate are the averages of 3˜5 individual measurements.
A solution of 100 nM RRE RNA and 10 nM fluorescein-labeled HIV-1 Rev peptide was incubated at 25° C. After 10 min, appropriate concentrations (0 nM to 500 μM) of the antagonists were added; total volume of the incubation solution was […]. After 1 hour, the amount of the dissociated fluorescent probe was determined by the Spectra Max fluorescence plate reader. The experimental dose-response data for a given antagonist were fit to a sigmoidal dose-response nonlinear regression model on GraphPad Prism 4.0 to afford the IC50 values for each conjugates (Table 16).

HIVNL4-3 in MT-2 cells [1] = experiment: HIV antigen synthesis in treated cells, immunofluorescence assay (IFA); assay type: cell-based; conditions: for percentage of cells positive for HIV antigens, Day 2: MT-2 cells, microM: DPA119 24, DPA52 25, DPA53 9, DPA54 17, DPA55 4, DPA56 8, DPA121 25, virus control 15%; for percentage of cells positive for HIV antigens, Day 4 / percentage of cells positive for HIV antigens, Day 6: same concentrations, virus control 100%
Method: (§1) Anti-HIV activities can be routinely checked by measuring the percentage of cells positive for HIV antigens using immunofluorescence assay (IFA) and for the release of pelletable reverse transcriptase (RT) into the supernatant. For these assays, 500,000 MT-2 cells in 1 ml of media were added to the wells of a 24 well tissue culture plate. Next, 0.5 ml of 4× concentrated compound was added to triplicate wells of the plate. The cells and compounds were incubated for 1 hr at 37 C. Finally, 0.5 ml of HIVNL4-3, produced in H9 cells (a CD4+ lymphoblastoid cell line), 100,000 cpm of RT activity per well, was added to each well. Virus control wells contained no compounds. This inoculum is at a multiplicity of infection less than 1. On days 2, 4, and 6, 0.75 mls of supernatants were removed and placed into individual microfuge tubes for RT assay. Next, cells were resuspended in the media and 0.5 mls of the total remaining volume was removed for IFA. Cells were combined from their triplicate infections, pelleted, and the enriched cells were air-dried onto glass slides. The dried cells were fixed in acetonemethanol (50:50). After fixing, cells were stained with HIV immunoglobulin, washed in PBS, and counter-stained with FITC-conjugated goat and human IgG. Slides were washed in PBS and the percentage of HIV-positive cells was determined by epifluorescence (Robinson et al. J Acquire Immune Defic Syndr 2:33-42, 1989).

HIVNL4-3 in MT-2 cells [2] = experiment: Release of reverse transcriptase into the culture supernatant; assay type: cell-based, HIV; conditions: for Release of reverse transcriptase into the culture supernatant, Day 2: mean of triplicate infections (SD), microM: DPA119 24, DPA52 25, DPA53 9, DPA54 17, DPA55 4, DPA56 8, DPA121 25, virus control 46,029; for Release of reverse transcriptase into the culture supernatant, Day 4 / Release of reverse transcriptase into the culture supernatant, Day 6: mean of triplicate infections; for Release of reverse transcriptase into the culture supernatant, Day 4: virus control 928,112; for Release of reverse transcriptase into the culture supernatant, Day 6: virus control 1,078,741
Source text: as §1, with “The disclosed conjugates also reduce the amount of reverse transcriptase (RT) released into the cell culture supernatant upon in vitro cell culture experiments (Table 14 below). […] It is possible that even though the cells are positive for HIV, they are making much fewer unspliced transcripts, and thus the virion release into the media remains suppressed. […] Anti-HIV” for “Anti-HIV”, “On days 2, 4, and 6, 0.75 mls of supernatants were removed and placed into individual microfuge tubes for RT assay.” left out, “[…] The supernatants from each well were precipitated at 4 C overnight in a solution including 30% polyethylene glycol. After precipitation, precipitate was lysed in a solution containing Triton X100, Tris buffer, and DTT. RT activity of each aliquot was determined as incorporation of 3H-dTTP into a poly rA-oligo dT template. After a one hour assay at 37 C, the incorporated dTTP was precipitated onto a ZetaProbe (BioRad) membrane. Slots were excised and placed into liquid scintillation cocktail. After overnight incubation, counts per minute for each sample was determined on a beta counter. Results were calculated as cpm/ml of original culture supernatant (Robinson et al.” for “J Acquire Immune Defic Syndr 2:33-42, 1989).”

HIV = experiment: Protection from HIV cytopathic effects; assay type: cell-based; conditions: at 24 microM

Row | SMILES | ΔTm (° C.) (TAR RNA) | Tm (° C.) (TAR RNA) | IC50 (HIV-1 TAR RNA; Table 17) | 5% Toxicity microM (cells) | IC50 (HIV-1 TAR RNA; Table 18) | IC50 (HIV-1 RRE RNA) | percentage of cells positive for HIV antigens, Day 2 (HIVNL4-3 in MT-2 cells [1]) | percentage of cells positive for HIV antigens, Day 4 (HIVNL4-3 in MT-2 cells [1]) | percentage of cells positive for HIV antigens, Day 6 (HIVNL4-3 in MT-2 cells [1]) | Release of reverse transcriptase into the culture supernatant, Day 2 (HIVNL4-3 in MT-2 cells [2]) | Release of reverse transcriptase into the culture supernatant, Day 4 (HIVNL4-3 in MT-2 cells [2]) | Release of reverse transcriptase into the culture supernatant, Day 6 (HIVNL4-3 in MT-2 cells [2]) | protection from HIV cytopathic effects (HIV)
1 | CN1CCN(c2ccc3nc(-c4ccc(OCc5cn(CCn6cc(CCCCc7cn(C[C@H]8OC(OC9C(O)[C@H](N)CC(N)[C@H]9O[C@H]9OC(CN)[C@@H](O)C(O)C9N)C(O)C8O[C@H]8OC(CN)[C@@H](O)C(O)C8N)nn7)nn6)nn5)cc4)[nH]c3c2)CC1 (some centres unmarked) [DPA113] | 3.1 °C | 72.4 °C | 61.3 ± 18.1 µM | 176 µM | – | – | – | – | – | – | – | – | –
2 | CN1CCN(c2ccc3nc(-c4ccc(OCc5cn(C[C@H]6OC(OC7C(O)[C@H](N)CC(N)[C@H]7O[C@H]7OC(CN)[C@@H](O)C(O)C7N)C(O)C6O[C@H]6OC(CN)[C@@H](O)C(O)C6N)nn5)cc4)[nH]c3c2)CC1 (some centres unmarked) [DPA123] | – | – | – | – | 0.155 ± 0.049 µM | 0.768 ± 0.309 µM | – | – | – | – | – | – | –
3 | CN1CCN(c2ccc3nc(-c4ccc(OCCn5cc(CCCc6cn(C[C@H]7OC(OC8C(O)[C@H](N)CC(N)[C@H]8O[C@H]8OC(CN)[C@@H](O)C(O)C8N)C(O)C7O[C@H]7OC(CN)[C@@H](O)C(O)C7N)nn6)nn5)cc4)[nH]c3c2)CC1 (some centres unmarked) [DPA120] | 3.9 °C | 73.2 °C | 1.7 ± 0.3 µM | 94 µM | – | 15.3 ± 6.9 µM | – | – | – | – | – | – | –
4 | CN1CCN(c2ccc3nc(-c4ccc(OCc5cn(CCCCCCCCn6cc(CCCCc7cn(C[C@H]8OC(OC9C(O)[C@H](N)CC(N)[C@H]9O[C@H]9OC(CN)[C@@H](O)C(O)C9N)C(O)C8O[C@H]8OC(CN)[C@@H](O)C(O)C8N)nn7)nn6)nn5)cc4)[nH]c3c2)CC1 (some centres unmarked) [DPA116] | 3.8 °C | 73.1 °C | 4.3 ± 0.6 µM | 83 µM | – | – | – | – | – | – | – | – | –
5 | CN1CCN(c2ccc3nc(-c4ccc(OCc5cn(CCCCCCn6cc(CCCCc7cn(C[C@H]8OC(OC9C(O)[C@H](N)CC(N)[C@H]9O[C@H]9OC(CN)[C@@H](O)C(O)C9N)C(O)C8OC8OC(CN)C(O)C(O)C8N)nn7)nn6)nn5)cc4)[nH]c3c2)CC1 (some centres unmarked) [DPA114] | 3.8 °C | 73.1 °C | 11.6 ± 2.3 µM | 11 µM | – | – | – | – | – | – | – | – | –
6 | CN1CCN(c2ccc3nc(-c4ccc(OCCn5cc(CCCCCCc6cn(C[C@H]7OC(OC8C(O)[C@H](N)CC(N)[C@H]8O[C@H]8OC(CN)[C@@H](O)C(O)C8N)C(O)C7O[C@H]7OC(CN)[C@@H](O)C(O)C7N)nn6)nn5)cc4)[nH]c3c2)CC1 (some centres unmarked) [DPA122] | 5.4 °C | 74.8 °C | 0.825 ± 0.145 µM | 46 µM | – | 0.0054 ± 0.0024 µM | – | – | – | – | – | – | –
7 | CN1CCN(c2ccc3nc(-c4ccc(OCCn5cc(CCCCc6cn(C[C@H]7OC(OC8C(O)[C@H](N)CC(N)[C@H]8O[C@H]8OC(CN)[C@@H](O)C(O)C8N)C(O)C7O[C@H]7OC(CN)[C@@H](O)C(O)C7N)nn6)nn5)cc4)[nH]c3c2)CC1 (some centres unmarked) [DPA121] | – | – | 0.686 ± 0.11 µM | >186 µM | – | 30.5 ± 11.1 µM | 15% | 100% | 100% | 26,499 (5,566) cpm/ml | 579,856 cpm/ml | 880,573 cpm/ml | –
8 | CN1CCN(c2ccc3nc(-c4ccc(OCc5cn(CCCCCCCCCCn6cc(CCCCc7cn(C[C@H]8OC(OC9C(O)[C@H](N)CC(N)[C@H]9O[C@H]9OC(CN)[C@@H](O)C(O)C9N)C(O)C8O[C@H]8OC(CN)[C@@H](O)C(O)C8N)nn7)nn6)nn5)cc4)[nH]c3c2)CC1 (some centres unmarked) [DPA117] | 6.3 °C | 75.6 °C | 1.3 ± 0.2 µM | 41 µM | – | 15.5 ± 6.3 µM | – | – | – | – | – | – | –
9 | CN1CCN(c2ccc3nc(-c4ccc(OCCn5cc(-c6ccc(-c7cn(C[C@H]8OC(OC9C(O)[C@H](N)CC(N)[C@H]9O[C@H]9OC(CN)[C@@H](O)C(O)C9N)C(O)C8O[C@H]8OC(CN)[C@@H](O)C(O)C8N)nn7)cc6)nn5)cc4)[nH]c3c2)CC1 (some centres unmarked) [DPA118] | 4.8 °C | 74.1 °C | 12.1 ± 5.4 µM | >184 µM | – | – | – | – | – | – | – | – | –
10 | CN1CCN(c2ccc3nc(-c4ccc(OCCn5cc(COCc6cn(C[C@H]7OC(OC8C(O)[C@H](N)CC(N)[C@H]8O[C@H]8OC(CN)[C@@H](O)C(O)C8N)C(O)C7O[C@H]7OC(CN)[C@@H](O)C(O)C7N)nn6)nn5)cc4)[nH]c3c2)CC1 (some centres unmarked) [DPA119] | 4.2 °C | 73.5 °C | 0.464 ± 0.146 µM | 94 µM | – | – | 5-7% | 90% | 100% | 16,576 (3,815) cpm/ml | 241,955 cpm/ml | 399,421 cpm/ml | 16%
